In patent publication US20200009221A1, “METHODS FOR INHIBITING NECROSIS” (priority 2010, published 2020):
Residues, ends and D or L forms follow the SMILES beside them. *: point of attachment. MeOSuc = COC(=O)CCC(=O)*; CH2Cl = ClC*

Key:
Type in all cases: cell-based
[1] = tested on: U937 cells; experiment: KCN (15 mM)-induced necrosis in U937 cells, LDH release assay, Humanin derivative with Elastase inhibitor III (Example 2); conditions: 7 hours
Experimental: (§1) The U937 cells are p53 minus monocytic cell line. The cells were grown at 37° C. in the presence of 5% CO2 in RPMI-1640 medium supplemented with 10% heat-inactivated fetal bovine serum (FCS), 2 Mm glutamine, 100 μg/ml penicillin, and 100 μg/ml streptomycin. The cells were split every third day.
U937 cells were cultured in complete RPMI-1640 medium, washed once and seeded at 4.5×10^5 cells/ml in glucose free medium 1 hour before treatment. Humanin or its derivatives of SEQ ID MOs 1-6 and Elastase inhibitor III (EI-III) and vehicle were added 30 minutes before the addition of KCN (15 mM). Following the treatment, the cells were incubated for 7 hours and cell death was measured via the LDH release assay.
(§2) The amount of LDH released from lysed cells is a sensitive measure of cell death. In this study, necrotic cell death was measured in 96-well plates using Promega's CytoTox 96 Non-Radioactive Cytotoxicity Assay kit, which accurately and rapidly measures cell death by quantitating the release of lactate dehydrogenase (LDH), a stable cytosolic enzyme from lysed cells.
(§3) At the end of each experiment, the cells were centrifuged at 240×g for 10 minutes at room temperature. Next, the supernatant was collected and 50 μL aliquots were taken for the LDH release assay. The LDH content from cells lysed in 0.1% Tryton X-100 for 10-15 minutes was used as a measure for total LDH content. The LDH released in the treatment (after subtracting the blank measure) was used for measuring necrotic cell death as a percentage from total LDH. A measurement of the absorbance value at 490 nm was preformed by ELISA READER, 30 minutes after the addition of the LDH reaction solution.

[2] = tested on: U937 cells; experiment: KCN (5 mM)-induced necrosis in U937 cells, LDH release assay, Humanin derivative with Mimosine (Example 3); conditions: 7 hours
Experimental: as §1
U937 cells were cultured in complete RPMI-1640 medium, washed once and seeded at 4.5×10^5 cells/ml in glucose free medium 1 hour before treatment. Humanin or its derivatives of SEQ ID MOs 1-6 and Mimosine and vehicle were added 30 minutes before the addition of KCN (5 mM). Following the treatment, the cells were incubated for 7 hours and cell death was measured via the LDH release assay.
as §2, §3

[3] = tested on: U-937 cells; experiment: KCN-induced necrosis in U-937 cells, LDH release (Example 1); conditions: 10 μM peptide, LDH release after 7 hours (FIG. 1)
Experimental: FIGS. 1A-1B. […] LDH release was measured after 7 hours (see, FIG. 1A) % LDH release with the crude data; (see, FIG. 1B) The amount of LDH released of control cells was subtracted from all treatments, P*<0.02. […] The effects of HN and its derivatives on necrotic cell death induced by staurosporine/oligomicyn in PC12 cells are depicted in FIG. 4 (by LDH release) and FIG. 5 (ethydium bromide and acridine orange staining).

[4] = tested on: PC12 cells; experiment: KCN-induced necrosis in PC12 cells, LDH release; conditions: LDH release after 5 hours (FIG. 2 and FIG. 3)
Experimental: FIGS. 2A-2B. […] LDH release was measured after 5 hours (see, FIG. 2A) % LDH release with the crude data; (see, FIG. 2B) The amount of LDH released from control cells was subtracted from all treatments, P*<0.05. FIG. 3. Is a bar graph showing the effect of different HN17 concentrations on KCN-induced necrosis in PC12 cells as assessed by the determination of LDH release. PC12 cells were treated with or without 7 mM KCN for 5 hours in the presence or absence of different concentrations of HN17 (1-30 μM), and then LDH release from the cells was determined, P*<0.04. […] The effects of HN and its derivatives on necrotic cell death induced by staurosporine/oligomicyn in PC12 cells are depicted in FIG. 4 (by LDH release) and FIG. 5 (ethydium bromide and acridine orange staining).

For `COC(=O)CCC(=O)N[C@@H](C)C(=O)N[C@@H](C)C(=O)N1CCC[C@H]1C(=O)N[C@H](C(=O)CCl)C(C)C` [EI-III, HLE Inhibitor MeOSuc-AAPV-CMK] (MeOSuc-AAPV-CH2Cl), the “impact on necrotic cell death induced by KCN” value (from here on “impact”) ([1]; EI-III at 50 μM) was “no impact”, the “inhibition of cell death by necrosis” value ([1]; EI-III at 100 μM) was 75% and the “inhibition of cell death by necrosis” value ([1]; EI-III at 300 μM) was 75%.

For `NC(Cn1ccc(=O)c(O)c1)C(=O)O` (centres unmarked) [mimosine, Mimosine, reference compound], the “inhibition of necrotic cell death” value ([2]; mimosine at 30 μM) was “no inhibition”, the “inhibition of necrotic cell death” value ([2]; mimosine at 70 μM) was “no inhibition” and the “inhibition of cell death by necrosis” value ([2]; mimosine at 300 μM) was 12%.

For “MAPAGASCLLLLTGEIDLPVKRRA [AGA-HNG, Humanin derivative]”, the “impact” value ([1]; AGA-HNG at 1 μM) was “no impact”, the “impact” value ([1]; AGA-HNG at 10 μM) was “no impact” and the “protection against KCN-induced necrotic cell death as measured by LDH release” value (shortened to “protection”) [3] was “conferred protection”.

“MAPRGFSCLLLLTGEIDLPVKRRA [HNG, Humanin derivative]” was tested, and the “inhibition of necrotic cell death” value ([2]; HNG at 1 μM) was “no inhibition”, the “inhibition of necrotic cell death” value ([2]; HNG at 10 μM) was “no inhibition” and the “inhibition of necrotic cell death” value ([2]; HNG at 301 μM) was “no inhibition”.

“PRGFSCLLLLTSEIDLP [HN17, Humanin derivative; the short name HN17 is also printed for AGA-C8R-HNG17]” was tested, and the “protection” value [3] was “conferred protection” and the “protection” value [4] was “confers protection”.
